Where “and” joins values, the source holds several entries; their conditions need not be identical. Identical values can stand only once. Like-named read-outs stand apart in the source and are kept apart here.
Assays:
CCRF-CEM cells = assay: cell viability, CTG assay, CCRF-CEM; conditions: for cell viability (0 µM = 100): listed as AVX420; for cell viability (Control = 100): VEH
Description: Data are the mean ± stdev of 3 biological replicates. c Viability of healthy T-cells measured by propidium iodide (PI) exclusion. Data are the mean ± stdev of 8 biological replicates for 1–16 µM AVX420, 5 for 32 µM AVX420 and 2 for 0.5 µM Staurosporine (Stau). d Cell viability measured by CTG assay in cells preincubated with 2.5 mM glutathione (GSH) or 2.5 mM N-acetyl cysteine (NAC) for 30 min before addition of 0.5 or 1 µM AVX420, 0.06 µM RSL-3, or 0.06 µM ML-210 for 24 h. Data are the mean ± stdev of 3 biological replicates. P-values were determined by one-way ANOVA with Dunnett’s correction for multiple testing and **** indicates P < 0.0001. e Cell viability measured by CTG assay. CCRF-CEM or Jurkat cells were co-treated with 0.5 µM AVX420 and either arachidonic acid (AA) at concentrations ranging from 1 to 100 µM or a mixture of 9 eicosanoids: 6-keto prostaglandin F1α, Thromboxane B2, prostaglandin F2α, prostaglandin E2, prostaglandin D2, 12(S)-HHTrE, 15(S)-HETE,12(S)-HETE, 5(S)-HETE at a final concentration of 2 ng/mL each (EIC-mix) for 24 h. Data are the mean ± stdev of 3 biological replicates. P-values were determined by two-way ANOVA with Sidak’s correction for multiple comparisons. f Proportion of intracellular ROS-positive cells measured by ROS-red staining and flow cytometry. Cells were treated with indicated concentrations of AVX420 (µM), 1 mM H2O2, 1 µM RSL-3, or 1 µM doxorubicin (dox) for 4 h. Data are the mean ± stdev of 3 biological replicates. g Intracellular ROS measurements in CCRF-CEM cells treated with AVX420 (0.5 µM), AVX002 (8 µM), or AACOCF3 (8 µM) for 4 h.
All cell lines were confirmed to be free of mycoplasma contamination. The cell lines were not authenticated. MV-4-11 were cultured in Iscove’s Modified Dulbecco’s Medium (Sigma, I3390). CCRF-CEM, Jurkat E6.1, and HL-60 cells were cultured in RPMI 1640 Medium RPMI-1640 medium (Sigma, R5886).

HL-60 cells = assay: cell viability, resazurin assay, HL-60; assay type: cell-based, human; conditions: for cell viability relative to 0 µM = 100 (Figure S7b): listed as AVX420
Excerpt: Bjørn Tore Gjertsen (University of Bergen, Norway). […] The cell lines were not authenticated.
Figure S7. Sensitivity of cell lines derived from hematological malignancies. a. cell viability expressed as relative light units ( RLU) is plotted for all cell lines in the screen that were de-rived from hematological malignancies. b. corresponding IC50 values calculated by non-linear regression analysis. c. Cell viability assessed by resazurin assays in MV-4-11 and HL-60 cells.
Data were normalized to the vehicle-treated control (100%) and are the mean of 4 biological replicates ±stdev (MV-4-11) and 5 biological replicates ±stdev (HL-60), Non-linear regres- […]

Compound: CCCCCCCOc1ccc(OCC(=O)c2nc(C(=O)OC)cs2)cc1 [GK420]
- cell viability (0 µM = 100) (CCRF-CEM cells; 0.25 µM, 24H): 69 and 65
- cell viability (0 µM = 100) (CCRF-CEM cells; 0.25 µM, 48H): 43
- cell viability (0 µM = 100) (CCRF-CEM cells; 0.25 µM, 72H): 16 and 24
- cell viability (0 µM = 100) (CCRF-CEM cells; 0.5 µM, 24H): 42 and 39
- cell viability (0 µM = 100) (CCRF-CEM cells; 0.5 µM, 48H): 19
- cell viability (0 µM = 100) (CCRF-CEM cells; 0.5 µM, 72H): 5.44 and 10
- cell viability (Control = 100) (CCRF-CEM cells; 0.5 µM, listed as AVX420, 0.5 µM): 56 and 50
- cell viability (0 µM = 100) (CCRF-CEM cells; 1 µM, 24H): 23
- cell viability (0 µM = 100) (CCRF-CEM cells; 1 µM, 48H): 10
- cell viability (0 µM = 100) (CCRF-CEM cells; 1 µM, 72H): 3 and 4.53
- cell viability (Control = 100) (CCRF-CEM cells; 1 µM, listed as AVX420, 1 µM): 38
- cell viability (0 µM = 100) (CCRF-CEM cells; 2 µM, 24H): 11
- cell viability (0 µM = 100) (CCRF-CEM cells; 2 µM, 48H): 3 and 2
- cell viability (0 µM = 100) (CCRF-CEM cells; 2 µM, 72H): 1.13
- cell viability (0 µM = 100) (CCRF-CEM cells; 4 µM, 72H): 0.147
- effect on viability (CCRF-CEM cells; CTG): strong dose-dependent effect
- viability at 0.007 µM (CCRF-CEM cells; Homo sapiens, 24 h, read-out: cell viability (0 µM = 100), CCRF-CEM, 0.007 µM, 24H): 98%
- viability at 0.015 µM (CCRF-CEM cells; Homo sapiens, 24 h, read-out: cell viability (0 µM = 100), CCRF-CEM, 0.015 µM, 24H): 98%
- viability at 0.031 µM (CCRF-CEM cells; Homo sapiens, 24 h, read-out: cell viability (0 µM = 100), CCRF-CEM, 0.031 µM, 24H): 98%
- viability at 0.062 µM (CCRF-CEM cells; Homo sapiens, 24 h, read-out: cell viability (0 µM = 100), CCRF-CEM, 0.062 µM, 24H): 98%
- viability at 0.25 µM (CCRF-CEM cells; Homo sapiens, 24 h, read-out: cell viability (0 µM = 100), CCRF-CEM, 0.25 µM, 24H): 68%
- viability at 0.5 µM (CCRF-CEM cells; Homo sapiens, 24 h, read-out: cell viability (0 µM = 100), CCRF-CEM, 0.5 µM, 24H): 49%
- viability at 1 µM (CCRF-CEM cells; Homo sapiens, 24 h, read-out: cell viability (0 µM = 100), CCRF-CEM, 1 µM, 24H): 27%
- viability at 2 µM (CCRF-CEM cells; Homo sapiens, 24 h, read-out: cell viability (0 µM = 100), CCRF-CEM, 2 µM, 24H): 14%
- viability at 0.007 µM (CCRF-CEM cells; Homo sapiens, 48 h, read-out: cell viability (0 µM = 100), CCRF-CEM, 0.007 µM, 48H): 94%
- viability at 0.015 µM (CCRF-CEM cells; Homo sapiens, 48 h, read-out: cell viability (0 µM = 100), CCRF-CEM, 0.015 µM, 48H): 95%
- viability at 0.031 µM (CCRF-CEM cells; Homo sapiens, 48 h, read-out: cell viability (0 µM = 100), CCRF-CEM, 0.031 µM, 48H): 87%
- viability at 0.062 µM (CCRF-CEM cells; Homo sapiens, 48 h, read-out: cell viability (0 µM = 100), CCRF-CEM, 0.062 µM, 48H): 85%
- viability at 0.125 µM (CCRF-CEM cells; Homo sapiens, 48 h, read-out: cell viability (0 µM = 100), CCRF-CEM, 0.125 µM, 48H): 67%
- viability at 0.25 µM (CCRF-CEM cells; Homo sapiens, 48 h, read-out: cell viability (0 µM = 100), CCRF-CEM, 0.25 µM, 48H): 41%
- viability at 0.5 µM (CCRF-CEM cells; Homo sapiens, 48 h, read-out: cell viability (0 µM = 100), CCRF-CEM, 0.5 µM, 48H): 17%
- viability at 1 µM (CCRF-CEM cells; Homo sapiens, 48 h, read-out: cell viability (0 µM = 100), CCRF-CEM, 1 µM, 48H): 9%
- viability at 2 µM (CCRF-CEM cells; Homo sapiens, 48 h, read-out: cell viability (0 µM = 100), CCRF-CEM, 2 µM, 48H): 4%
- viability at 0.007 µM (CCRF-CEM cells; Homo sapiens, 72 h, read-out: cell viability (0 µM = 100), CCRF-CEM, 0.007 µM, 72H): 82%
- viability at 0.015 µM (CCRF-CEM cells; Homo sapiens, 72 h, read-out: cell viability (0 µM = 100), CCRF-CEM, 0.015 µM, 72H): 78%
- viability at 0.031 µM (CCRF-CEM cells; Homo sapiens, 72 h, read-out: cell viability (0 µM = 100), CCRF-CEM, 0.031 µM, 72H): 76%
- viability at 0.062 µM (CCRF-CEM cells; Homo sapiens, 72 h, read-out: cell viability (0 µM = 100), CCRF-CEM, 0.062 µM, 72H): 67%
- viability at 0.125 µM (CCRF-CEM cells; Homo sapiens, 72 h, read-out: cell viability (0 µM = 100), CCRF-CEM, 0.125 µM, 72H): 40%
- viability at 0.25 µM (CCRF-CEM cells; Homo sapiens, 72 h, read-out: cell viability (0 µM = 100), CCRF-CEM, 0.25 µM, 72H): 21%
- viability at 0.5 µM (CCRF-CEM cells; Homo sapiens, 72 h, read-out: cell viability (0 µM = 100), CCRF-CEM, 0.5 µM, 72H): 7%
- viability at 1 µM (CCRF-CEM cells; Homo sapiens, 72 h, read-out: cell viability (0 µM = 100), CCRF-CEM, 1 µM, 72H): 3.38%
- viability at 2 µM (CCRF-CEM cells; Homo sapiens, 72 h, read-out: cell viability (0 µM = 100), CCRF-CEM, 2 µM, 72H): 1%
- viability at 4 µM (CCRF-CEM cells; Homo sapiens, 72 h, read-out: cell viability (0 µM = 100), CCRF-CEM, 4 µM, 72H): 0.214%
- viability at 0.5 µM (CCRF-CEM cells; Homo sapiens, read-out: cell viability (Control = 100), CCRF-CEM, 0.5 µM, VEH): 52%
- viability at 1 µM (CCRF-CEM cells; Homo sapiens, read-out: cell viability (Control = 100), CCRF-CEM, 1 µM, VEH): 37%
- cell viability relative to 0 µM = 100 (Figure S7b) (HL-60 cells; HL-60, 1 µM, rep1-5): 97.3013 and 90.6778 and 115.865 and 99.353 and 90.3923
- cell viability relative to 0 µM = 100 (Figure S7b) (HL-60 cells; HL-60, 3 µM, rep1-5): 90.5903 and 85.7617 and 98.8696 and 77.2301 and 87.8872
- cell viability relative to 0 µM = 100 (Figure S7b) (HL-60 cells; HL-60, 5 µM, rep1-5): 71.3359 and 44.5692 and 65.87 and 61.5884 and 62.96
- cell viability relative to 0 µM = 100 (Figure S7b) (HL-60 cells; HL-60, 7 µM, rep1-5): 63.2164 and 43.3688 and 54.7108 and 42.3668 and 54.7116
- cell viability relative to 0 µM = 100 (Figure S7b) (HL-60 cells; HL-60, 10 µM, rep1-5): 36.7957 and 43.3263 and 38.5629 and 49.5907
- cell viability relative to 0 µM = 100 (Figure S7b) (HL-60 cells; HL-60, 12 µM, rep1-5): 32.4548 and 37.5058 and 42.0594 and 45.299
- cell viability relative to 0 µM = 100 (Figure S7b) (HL-60 cells; HL-60, 15 µM, rep1-5): 31.4644 and 36.8417 and 35.3195 and 49.7069
- cell viability relative to 0 µM = 100 (Figure S7b) (HL-60 cells; HL-60, 20 µM, rep1-5): 29.4668 and 34.076 and 29.9279 and 43.7902
- viability at 10 µM (HL-60 cells; Homo sapiens, HL-60, HL-60, 10 µM, rep1-5, read-out: cell viability relative to 0 µM = 100 (Figure S7b)): 49.4%
- viability at 12 µM (HL-60 cells; Homo sapiens, HL-60, HL-60, 12 µM, rep1-5, read-out: cell viability relative to 0 µM = 100 (Figure S7b)): 45.2%
- viability at 15 µM (HL-60 cells; Homo sapiens, HL-60, HL-60, 15 µM, rep1-5, read-out: cell viability relative to 0 µM = 100 (Figure S7b)): 42.5%
- viability at 20 µM (HL-60 cells; Homo sapiens, HL-60, HL-60, 20 µM, rep1-5, read-out: cell viability relative to 0 µM = 100 (Figure S7b)): 36.3%
- IC50 (HL-60 cells; Homo sapiens, HL-60, resazurin assay): 4.6 µM

Source: publication PMC11696576, “Next generation thiazolyl ketone inhibitors of cytosolic phospholipase A2 α for targeted cancer therapy” (Nature Communications, 2025)
